Legend:
[1] = target: T1, kinase domain of ULK1 (Homo sapiens, UniProt O75385); conditions: binder
T1 sequence (O75385 1-283 limits assumed): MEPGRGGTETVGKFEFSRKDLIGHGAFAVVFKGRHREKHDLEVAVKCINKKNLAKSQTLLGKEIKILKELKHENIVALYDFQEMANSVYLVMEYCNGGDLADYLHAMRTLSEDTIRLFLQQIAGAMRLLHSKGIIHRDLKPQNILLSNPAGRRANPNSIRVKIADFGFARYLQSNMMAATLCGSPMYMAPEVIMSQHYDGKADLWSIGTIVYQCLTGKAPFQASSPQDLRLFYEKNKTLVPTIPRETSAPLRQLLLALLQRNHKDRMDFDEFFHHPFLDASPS

[2] = target: T2, ULK2 (Homo sapiens, UniProt Q8IYT8); experiment: biochemical
T2 sequence (Q8IYT8 1-1036): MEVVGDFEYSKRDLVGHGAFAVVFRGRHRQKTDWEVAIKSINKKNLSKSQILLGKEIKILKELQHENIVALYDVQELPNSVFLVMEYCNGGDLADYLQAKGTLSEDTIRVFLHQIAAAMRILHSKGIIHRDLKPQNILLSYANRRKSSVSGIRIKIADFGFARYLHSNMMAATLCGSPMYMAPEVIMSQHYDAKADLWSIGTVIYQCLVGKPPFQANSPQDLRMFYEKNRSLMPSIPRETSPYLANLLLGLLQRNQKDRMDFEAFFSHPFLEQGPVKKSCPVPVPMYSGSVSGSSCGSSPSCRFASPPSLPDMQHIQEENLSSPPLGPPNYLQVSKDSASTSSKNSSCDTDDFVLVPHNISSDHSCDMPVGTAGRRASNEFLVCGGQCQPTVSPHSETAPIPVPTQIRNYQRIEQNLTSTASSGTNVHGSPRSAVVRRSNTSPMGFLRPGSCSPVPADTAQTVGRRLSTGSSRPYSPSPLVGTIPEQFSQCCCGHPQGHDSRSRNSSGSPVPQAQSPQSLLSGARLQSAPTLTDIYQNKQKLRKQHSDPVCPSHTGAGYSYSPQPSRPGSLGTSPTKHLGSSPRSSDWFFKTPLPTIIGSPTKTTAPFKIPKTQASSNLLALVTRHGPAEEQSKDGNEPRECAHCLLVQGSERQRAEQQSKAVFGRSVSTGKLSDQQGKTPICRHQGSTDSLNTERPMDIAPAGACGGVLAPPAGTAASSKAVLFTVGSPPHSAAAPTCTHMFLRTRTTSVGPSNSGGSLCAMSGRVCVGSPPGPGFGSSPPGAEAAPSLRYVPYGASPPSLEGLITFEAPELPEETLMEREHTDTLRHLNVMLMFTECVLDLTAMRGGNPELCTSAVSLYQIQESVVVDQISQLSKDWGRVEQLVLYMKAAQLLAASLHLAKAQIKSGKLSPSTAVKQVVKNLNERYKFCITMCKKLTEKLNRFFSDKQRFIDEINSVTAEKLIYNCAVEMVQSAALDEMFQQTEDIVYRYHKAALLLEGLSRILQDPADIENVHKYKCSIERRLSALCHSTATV

[3] = target: T3, ULK1 (Homo sapiens, UniProt O75385); experiment: ADP-Glo kinase assay; assay type: biochemical
T3 sequence (O75385 1-1050): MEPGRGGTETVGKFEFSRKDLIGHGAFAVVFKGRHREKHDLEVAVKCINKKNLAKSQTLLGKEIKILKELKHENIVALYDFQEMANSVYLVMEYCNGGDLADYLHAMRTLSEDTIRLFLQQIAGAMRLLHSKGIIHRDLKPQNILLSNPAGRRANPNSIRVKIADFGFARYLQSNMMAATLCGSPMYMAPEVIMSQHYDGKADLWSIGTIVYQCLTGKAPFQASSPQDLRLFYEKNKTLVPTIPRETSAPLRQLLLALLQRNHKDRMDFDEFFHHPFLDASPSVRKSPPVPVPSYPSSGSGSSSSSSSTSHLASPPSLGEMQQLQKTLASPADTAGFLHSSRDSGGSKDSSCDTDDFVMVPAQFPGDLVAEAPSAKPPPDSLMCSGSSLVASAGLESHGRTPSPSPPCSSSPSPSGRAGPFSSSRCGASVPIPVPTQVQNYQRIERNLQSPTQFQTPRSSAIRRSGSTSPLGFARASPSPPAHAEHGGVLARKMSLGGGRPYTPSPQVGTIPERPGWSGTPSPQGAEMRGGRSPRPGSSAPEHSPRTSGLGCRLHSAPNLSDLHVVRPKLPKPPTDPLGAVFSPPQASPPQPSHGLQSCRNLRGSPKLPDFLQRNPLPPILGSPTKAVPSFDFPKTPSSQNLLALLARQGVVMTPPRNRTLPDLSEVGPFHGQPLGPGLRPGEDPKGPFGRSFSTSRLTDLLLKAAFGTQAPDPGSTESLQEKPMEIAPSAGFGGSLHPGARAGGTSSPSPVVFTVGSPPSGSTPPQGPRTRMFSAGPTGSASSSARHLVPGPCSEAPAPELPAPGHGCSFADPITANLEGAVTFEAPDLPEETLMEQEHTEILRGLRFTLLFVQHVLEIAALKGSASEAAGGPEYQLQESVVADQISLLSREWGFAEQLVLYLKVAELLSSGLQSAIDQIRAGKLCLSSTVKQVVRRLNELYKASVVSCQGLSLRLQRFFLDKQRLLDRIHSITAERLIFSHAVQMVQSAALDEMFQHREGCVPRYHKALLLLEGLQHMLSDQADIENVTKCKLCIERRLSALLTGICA

[4] = target: T4, kinase domain of ULK2 (Homo sapiens, UniProt Q8IYT8); conditions: binder
T4 sequence (Q8IYT8 1-276 limits assumed): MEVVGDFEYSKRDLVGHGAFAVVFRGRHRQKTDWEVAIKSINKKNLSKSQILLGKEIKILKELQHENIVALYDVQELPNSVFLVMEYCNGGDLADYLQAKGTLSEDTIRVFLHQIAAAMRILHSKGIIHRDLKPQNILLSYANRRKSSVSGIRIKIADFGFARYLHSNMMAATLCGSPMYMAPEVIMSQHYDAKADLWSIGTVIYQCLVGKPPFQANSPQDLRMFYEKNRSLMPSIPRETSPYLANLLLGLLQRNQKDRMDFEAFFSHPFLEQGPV

[5] = target: T3, ULK1; experiment: biochemical
[6] = target: T5, ULK1 (NanoBRET) (Homo sapiens, UniProt O75385); experiment: NanoBRET cellular target engagement; assay type: cell-based
T5 sequence (O75385 1-1050): T3 sequence (O75385 1-1050)

CNC(=O)c1ccccc1Nc1nc(Nc2ccc(N3CCOCC3)cc2OC)ncc1C(F)(F)F [6c, 2-(2-(2-Methoxy-4-morpholinophenylamino)-5-(trifluoromethyl)pyrimidin-4-ylamino)-N-methylbenzamide]
ULK1 PTS (ºC) [1]: 6.55 ± 0.12 °C
IC50 [2]: 1340 ± 198 nM
IC50 [3]: 62 nM
ULK2 PTS (ºC) [4]: 6.50 ± 0.09 °C

CNC(=O)c1ccccc1Nc1nc(Nc2cc(N3CCOCC3)cc(N3CCOCC3)c2)ncc1C(F)(F)F [6r, 2-(2-(3,5-dimorpholinophenylamino)-5-(trifluoromethyl)pyrimidin-4-ylamino)-N-methylbenzamide]
ULK1 PTS (ºC) [1]: 17.28 ± 0.06 °C
IC50 [2]: 19 ± 3 nM
ULK2 PTS (ºC) [4]: 16.70 ± 0.05 °C
IC50 [5]: 15 ± 1 nM
IC50 [6]: 17 nM

FC(F)(F)c1cnc(Nc2ccc3c(c2)CCNC3)nc1NC1CC1 [SBP-5147, reference compound]
IC50 [6]: 47 ± 11 nM

CNC(=O)c1ccccc1Nc1nc(Nc2cc(OC)ccc2C)ncc1Br [6m, 2-(5-Bromo-2-(5-methoxy-2-methylphenylamino)pyrimidin-4-ylamino)-N-methylbenzamide]
ULK1 PTS (ºC) [1]: 6.78 ± 0.13 °C
IC50 [2]: > 3000 nM
IC50 [3]: 32 nM
ULK2 PTS (ºC) [4]: 4.28 ± 0.19 °C

CNC(=O)c1ccccc1Nc1nc(Nc2cc(OC)ccc2C)ncc1C(F)(F)F [6l, 2-(2-(5-Methoxy-2-methylphenylamino)-5-(trifluoromethyl)pyrimidin-4-ylamino)-N-methylbenzamide]
ULK1 PTS (ºC) [1]: 8.90 ± 0.17 °C
IC50 [2]: 1960 ± 101 nM
IC50 [3]: 38 nM
ULK2 PTS (ºC) [4]: 7.08 ± 0.25 °C

CNC(=O)c1ccccc1Nc1nc(Nc2cc(OC)c(OC)c(OC)c2)ncc1Cl [6o, 2-(5-Chloro-2-(3,4,5-trimethoxyphenylamino)pyrimidin-4-ylamino)-N-methylbenzamide]
ULK1 PTS (ºC) [1]: 14.25 ± 0.11 °C
IC50 [3]: 8 nM
ULK2 PTS (ºC) [4]: 12.01 ± 0.05 °C
IC50 [6]: 4.05 nM

CNC(=O)c1ccccc1Nc1nc(Nc2ccc3[nH]ccc3c2)ncc1Cl [6g, 2-(2-(1H-indol-5-ylamino)-5-chloropyrimidin-4-ylamino)-N-methylbenzamide]
ULK1 PTS (ºC) [1]: 6.78 ± 0.19 °C
IC50 [2]: > 3000 nM
ULK2 PTS (ºC) [4]: 5.86 ± 0.12 °C
IC50 [5]: 94 ± 43 nM

CNC(=O)c1ccccc1Nc1nc(Nc2ccc3[nH]ccc3c2)ncc1Br [6h, 2-(2-(1H-indol-5-ylamino)-5-bromopyrimidin-4-ylamino)-N-methylbenzamide]
ULK1 PTS (ºC) [1]: 8.08 ± 0.53 °C
IC50 [2]: > 3000 nM
ULK2 PTS (ºC) [4]: 7.49 ± 0.46 °C
IC50 [5]: 6 ± 1 nM

CNC(=O)c1ccccc1Nc1nc(Nc2cc(N3CCOCC3)cc(N3CCOCC3)c2)ncc1Br [6t, 2-(5-Bromo-2-(3,5-dimorpholinophenylamino)pyrimidin-4-ylamino)-N-methylbenzamide]
ULK1 PTS (ºC) [1]: 16.83 ± 0.12 °C
IC50 [2]: 59 ± 6 nM
ULK2 PTS (ºC) [4]: 16.23 ± 0.15 °C
IC50 [5]: 8 ± 1 nM

CNC(=O)c1ccccc1Nc1nc(Nc2ccc(N3CCOCC3)cc2OC)ncc1Br [6b, 2-(5-Bromo-2-(2-methoxy-4-morpholinophenylamino)pyrimidin-4-ylamino)-N-methylbenzamide]
ULK1 PTS (ºC) [1]: 5.60 ± 0.23 °C
IC50 [2]: > 3000 nM
IC50 [3]: 141 nM
ULK2 PTS (ºC) [4]: 4.13 ± 0.02 °C

CNC(=O)c1ccccc1Nc1nc(Nc2ccc3c(c2)CC(=O)N3)ncc1Cl [6f, 2-(5-Chloro-2-(2-oxoindolin-5-ylamino)pyrimidin-4-ylamino)-N-methylbenzamide]
ULK1 PTS (ºC) [1]: 0.20 ± 0.13 °C
IC50 [2]: > 3000 nM
IC50 [3]: 21 nM
ULK2 PTS (ºC) [4]: 0.48 ± 0.06 °C

CNC(=O)c1ccccc1Nc1nc(Nc2cc3c(cc2C)OCO3)ncc1Cl [6i, 2-(5-Chloro-2-(6-methylbenzo[d][1,3]dioxol-5-ylamino)pyrimidin-4-ylamino)-N-methylbenzamide]
ULK1 PTS (ºC) [1]: 3.37 ± 0.38 °C
IC50 [2]: > 3000 nM
ULK2 PTS (ºC) [4]: 2.45 ± 0.20 °C
IC50 [5]: 2700 ± 1780 nM

CNC(=O)c1ccccc1Nc1nc(Nc2cc(N3CCOCC3)cc(N3CCOCC3)c2)ncc1Cl [6s, 2-(5-Chloro-2-(3,5-dimorpholinophenylamino)pyrimidin-4-ylamino)-N-methylbenzamide]
ULK1 PTS (ºC) [1]: 13.28 ± 0.40 °C
IC50 [2]: 180 ± 9 nM
ULK2 PTS (ºC) [4]: 11.50 ± 0.27 °C
IC50 [5]: 38 ± 4 nM

O=C1CCc2cc(Nc3ncc(C(F)(F)F)c(NC4CC4)n3)ccc2N1 [SBP-7501, reference compound]
IC50 [6]: 167 ± 31 nM

CNC(=O)c1ccccc1Nc1nc(Nc2cccc(OC)c2)ncc1Cl [6n, 2-(5-Chloro-2-(3-methoxyphenylamino)pyrimidin-4-ylamino)-N-methylbenzamide]
ULK1 PTS (ºC) [1]: 6.53 ± 0.87 °C
IC50 [2]: > 3000 nM
ULK2 PTS (ºC) [4]: 1.38 ± 0.33 °C
IC50 [5]: 50 ± 25 nM

SBP-7455 [reference compound]
IC50 [6]: 328 ± 43 nM

CNC(=O)c1ccccc1Nc1nc(Nc2ccc3c(c2)OCCO3)ncc1Cl [6j, 2-(5-Chloro-2-(2,3-dihydrobenzo[b][1,4]dioxin-6-ylamino)pyrimidin-4-ylamino)-N-methylbenzamide]
ULK1 PTS (ºC) [1]: 6.05 ± 0.13 °C
IC50 [2]: > 3000 nM
IC50 [3]: 218 nM
ULK2 PTS (ºC) [4]: 4.43 ± 0.33 °C

CNC(=O)c1ccccc1Nc1nc(Nc2cc(OC)ccc2C)ncc1Cl [6k, 2-(5-Chloro-2-(5-methoxy-2-methylphenylamino)pyrimidin-4-ylamino)-N-methylbenzamide]
ULK1 PTS (ºC) [1]: 5.75 ± 0.12 °C
IC50 [2]: 893 ± 454 nM
IC50 [3]: 292 nM
ULK2 PTS (ºC) [4]: 3.38 ± 0.14 °C
